This is an account of results in patent US7943602B2 (Pantarhei Bioscience B.V., priority 2002, dated 2011).

In assay [1] the target is T1, Recombinant rat AR (Rattus norvegicus, UniProt P15207).
T1 construct: made in house; host or cells: E. coli
T1 sequence (P15207 1-902): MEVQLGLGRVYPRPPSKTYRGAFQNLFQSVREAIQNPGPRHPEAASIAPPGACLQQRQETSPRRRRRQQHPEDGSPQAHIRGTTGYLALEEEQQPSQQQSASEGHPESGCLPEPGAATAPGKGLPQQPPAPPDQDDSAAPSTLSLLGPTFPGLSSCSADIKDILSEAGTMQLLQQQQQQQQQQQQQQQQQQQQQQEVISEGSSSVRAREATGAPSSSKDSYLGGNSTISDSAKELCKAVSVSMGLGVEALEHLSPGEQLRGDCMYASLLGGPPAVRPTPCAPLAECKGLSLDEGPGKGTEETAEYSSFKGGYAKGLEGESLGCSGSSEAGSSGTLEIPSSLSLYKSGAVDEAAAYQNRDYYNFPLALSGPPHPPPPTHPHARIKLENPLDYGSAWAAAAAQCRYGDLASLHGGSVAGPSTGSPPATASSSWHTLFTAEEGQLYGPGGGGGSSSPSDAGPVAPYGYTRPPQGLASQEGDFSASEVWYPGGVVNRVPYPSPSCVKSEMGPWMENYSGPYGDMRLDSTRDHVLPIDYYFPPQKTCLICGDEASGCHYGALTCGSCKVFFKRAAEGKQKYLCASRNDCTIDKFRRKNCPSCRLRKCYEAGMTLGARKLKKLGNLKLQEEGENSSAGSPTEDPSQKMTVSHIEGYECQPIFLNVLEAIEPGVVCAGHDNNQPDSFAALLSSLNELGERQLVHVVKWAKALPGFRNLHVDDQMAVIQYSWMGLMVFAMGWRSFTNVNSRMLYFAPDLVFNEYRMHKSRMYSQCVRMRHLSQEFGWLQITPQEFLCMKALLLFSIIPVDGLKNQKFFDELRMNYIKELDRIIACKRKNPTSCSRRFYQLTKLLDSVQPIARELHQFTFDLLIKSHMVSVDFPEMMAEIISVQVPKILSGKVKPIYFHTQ
The assay can be described thus: Competitive steroid binding assay to the androgen receptor with [3H]mibolerone. Conditions: for AR-binding Relative affinity: Ki value of DHT set at 100%; for Affinity to AR as compared to DHT and testosterone: orders of magnitude. The method, then:
Recombinant rat AR was expressed and purified from E. Coli. […] After incubation for 4 h at 4° C., the unbound ligands were removed and the amounts of [^3H]mibolerone bound to the AR was measured. The average amounts of [^3H]mibolerone bound to AR at each concentration of competitor were used to make inhibition curves. IC50 values were subsequently determined by a non-linear, least squares regression analysis.

Assay [2] concerns immature male Wistar rats. The assay can be described thus: In vivo androgenicity, seminal vesicle wet weight after oral dosing for 5 days. On the set-up: species or system rat. The settings on record: for Increase seminal vesicle wet weight: once daily for 5 days, relative to vehicle treated rats; for Relative potency: DHT as reference (100%). Here is the method: Groups of 5 immature male Wistar rats, weighing 50±2 grams, received either vehicle treatment or were administered 30 or 10 mg/kg/day test substance by oral gavage in a dosing volume of 10 ml per kg for 5 consecutive days. During the experiment, animals were housed in cages of 45×23×15 cm and maintained in a controlled temperature of 22-24° C. and humidity (60-80%) environment with 12 hours light/dark cycles. Food (lab diet, rodent diet, PMI nutrition international) and water intake was ad libitum.
The animals were sacrificed 24 hours after receiving the final dose and the wet weight of the seminal vesicle of each animal was recorded and average wet weight per group was calculated. Increase in average seminal vesicle wet weight relative to the average seminal vesicle wet weight of vehicle treated rats was considered indicative for in vivo androgenicity.

Assay [3] deals with T2, human sex Hormone Binding Globulin (SHBG) (Homo sapiens, UniProt P04278).
T2 sequence (P04278 30-402): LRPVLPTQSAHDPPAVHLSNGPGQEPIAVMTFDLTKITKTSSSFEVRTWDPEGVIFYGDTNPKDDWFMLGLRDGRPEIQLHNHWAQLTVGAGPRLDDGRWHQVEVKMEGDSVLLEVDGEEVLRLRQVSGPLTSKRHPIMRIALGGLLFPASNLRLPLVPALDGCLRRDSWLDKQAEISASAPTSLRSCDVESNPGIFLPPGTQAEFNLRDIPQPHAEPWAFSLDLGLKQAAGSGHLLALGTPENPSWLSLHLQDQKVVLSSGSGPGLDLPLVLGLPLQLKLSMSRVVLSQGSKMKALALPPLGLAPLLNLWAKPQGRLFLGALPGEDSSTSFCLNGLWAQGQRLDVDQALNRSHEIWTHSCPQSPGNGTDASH
Briefly: Competitive steroid-binding assay, displacement of [3H]DHT from human SHBG. The settings on record: [3H]DHT as labeled ligand, compared to DHT, T or DHEA (FIG. 1).
Description: Human SHBG was treated for 30 min at room temperature with a dextran-coated charcoal (DCC) suspension in phosphate buffered saline (PBS) to remove any steroid ligand. After centrifugation (2,000×g for 10 min) to sediment the DCC, the supernatant containing the human SHBG was diluted in PBS to a concentration of 1 nM based on its steroid binding capacity.
Duplicate aliquots (100 μl) of this human SHBG solution were then incubated with an equal volume of [^3H]DHT at 10 nM, together with 100 μl of PBS alone or the same amount of PBS containing increasing concentrations of unlabeled steroid ligands as competitors in polystyrene test tubes. After incubation for 1 h at room temperature the reaction mixtures were placed in an ice bath for a further 15 min. […] The unbound ligands adsorbed to DCC were then removed by centrifugation (2,000×g for 15 min at 4° C.), and the amounts of [^3H]labeled DHT bound to SHBG were counted in 2 ml ACS scintillation cocktail using in liquid scintillation spectrophotometer. The average amounts of [^3H] labeled DHT bound to SHBG at each concentration of competitor (B) were expressed as a percentage of the average amounts of [^3H]labeled DHT bound to SHBG in the absence of competitor (T), and were plotted against the concentration of competitor in each assay tube.

As to `C[C@]12CC[C@H]3[C@@H](CCC4=CC(=O)CC[C@@]43C)[C@@H]1C[C@H](O)[C@@H]2O` [16β-hydroxytestosterone, 16β,17β-dihydroxy-4-androsten-3-one], in assay [1], the Ki amounted to 814 nM; the “AR-binding Relative affinity” value was found to be 0.12%; the “Affinity to AR as compared to DHT and testosterone” value was 2 to 3 orders of magnitude less affinity.

`C[C@]12CC[C@H]3[C@@H](CCC4=CC(=O)CC[C@@]43C)[C@@H]1CC[C@@H]2O` [Testosterone, 17β-hydroxy-4-androsten-3-one, reference compound]: the “Increase seminal vesicle wet weight” value turned out to be 41% in assay [2] (oral dose 10 mg/kg/day) and 47% in assay [2] (oral dose 30 mg/kg/day).

With `C[C@]12CC[C@H]3[C@@H](CCC4=CC(=O)CC[C@@]43C)[C@@H]1[C@H](O)C[C@@H]2O` [15β-hydroxytestosterone, 15β,17β-dihydroxy-4-androsten-3-one], in assay [1], the inhibition constant (Ki) was found to be 557 nM; the “AR-binding Relative affinity” value was 0.18%; the “Affinity to AR as compared to DHT and testosterone” value is on record as 2 to 3 orders of magnitude less affinity. Besides, in assay [2] (oral dose 10 mg/kg/day), the Relative potency is 400% and the “Increase seminal vesicle wet weight” value is 20%. In assay [2] (oral dose 30 mg/kg/day), the Relative potency was found to be 130% and the “Increase seminal vesicle wet weight” value is 35%. For the same compound, the “Binding to human SHBG” value in assay [3] was “do not bind human SHBG”.

On to `C[C@]12CC[C@H]3[C@@H](CCC4=CC(=O)CC[C@@]43C)[C@@H]1[C@@H](O)C[C@@H]2O` [15α-hydroxytestosterone, 15α,17β-dihydroxy-4-androsten-3-one], for which, in assay [1], the Ki was 1820 nM; the “AR-binding Relative affinity” value is given as 0.05%; the “Affinity to AR as compared to DHT and testosterone” value is listed as 2 to 3 orders of magnitude less affinity. Further, in assay [2] (oral dose 10 mg/kg/day), the Relative potency is listed as 560% and the “Increase seminal vesicle wet weight” value is reported as 28%. In assay [2] (oral dose 30 mg/kg/day), the Relative potency was found to be 148% and the “Increase seminal vesicle wet weight” value amounted to 40%. Besides, in assay [3], the “Binding to human SHBG” value is “do not bind human SHBG”.

For `C[C@]12CCC(=O)C[C@@H]1CC[C@@H]1[C@@H]2CC[C@]2(C)[C@@H](O)CC[C@@H]12` [5α-dihydroxytestosterone, DHT, reference compound], the “Increase seminal vesicle wet weight” value turned out to be 5% in assay [2] (oral dose 10 mg/kg/day) and 27% in assay [2] (oral dose 30 mg/kg/day).
